The source of these data is patent US20240285649A1, “PROGESTOGEN FORMULATIONS FOR USE IN MODULATING A CYTOKINE STORM MEDIATOR” (Shenzhen Evergreen Therapeutics Co., Ltd, priority 2020, published 2024).

The test system of data set [1] is smoke exposure-induced COPD rats. The experiment in a line: Pharmacodynamic study of 17-HPC inhalation in smoke exposure-induced COPD rats (lung function, BALF differential count, HE staining, body weight). Format: in vivo, Wistar rats. Conditions: for weight increase: at 24 weeks. As to the method:
(§1) Seventy-two Wistar rats were randomly divided into the blank control group, model group, 17-HPC (0.5 mg/ml, 0.25 mg/ml and 0.1 mg/ml) groups, BUD (0.5 mg/ml and 0.1 mg/ml) groups, and combination treatment (0.5 mg/ml BUD+0.25 mg/ml 17-HPC and 0.1 mg/ml BUD+0.25 mg/ml 17-HPC) groups. Drug concentration is the nebulized solution concentration. Lung function (forced vital capacity) of rats was measured using the small animal spirometer, and differential count in the BALF was determined under the microscope. Serum and BALF cytokine (IL-6, IL-17, TNF-α and IL-β) levels were measured by ELISA. Inflammatory cell infiltration area and MLI in rat lung tissues were determined by HE staining.

For a further data set, the system named is Sprague-Dawley rats. The data set can be described thus: Seven-day inhalation toxicity study in rats (GLP). The class given is in vivo. As to the method: A 7-day inhalation toxicity study in rats was conducted under GLP conditions. In this study, aerosolized 17-HPC was administered to Sprague-Dawley rats (10/sex/group) at 8, 24, and 72 mg/kg/day for 7 consecutive days. A control group of rats was dosed with aerosolized vehicle. Animals were observed daily for clinical signs. Body weight and food consumption were recorded at pretest, and then on Days 1, 4, and 7. In order to evaluate reversibility of 17-HPC treatment, a satellite rat group (5/sex/group) was dosed by inhalation at 72 mg/kg/day for 7 days, and then was sacrificed on Day 14. Except for the rats in the satellite group, all animals were sacrificed on Day 8. Hematology and biochemistry examinations were performed at the end of the study. Organ weight, gross pathology, and histopathology evaluations were performed.

Data set [2] is described as follows: PK of PR2005 formulations (oral gavage, capsule, IM) in female dogs, relative bioavailability vs MAKENA. The class given is in vivo. Conditions: 750 mg compared to 250 mg. From the text: This study determined the pharmacokinetic parameters of the test drug PR2005 (also referred to herein as 17-HPC) in different formulations after oral gavage or capsule administrations in dogs. This study further determined the relative bioavailability of the test drug PR2005 in each formulation, compared to intramuscular injection solution (MAKENA®).
PK parameters were estimated, including maximum plasma drug concentration (Cmax), time to reach Cmax (Tmax), time delay in absorption process (Tlag), area under the plasma concentration-time curve from time 0 to the last quantifiable data point (AUClast), area under the plasma concentration-time curve from time zero to infinity (AUCinf), plasma half-life (t1/2) and apparent plasma clearance (CL/F), apparent volume of distribution (Vz/F). All these parameters were computed using standard non-compartmental methods of analysis. […] Plasma PR2005 PK data was analyzed in Phoenix WinNonLin 8.1 (Certara USA, Inc.).
Log-transformed values of AUCinf were analyzed using a linear mixed-effects model. […] After back transformation from the log scale, estimates of geometric LSM and 90% CI for the ratio of means were calculated. Relative bioavailability (Fr %) was calculated as the ratio of dose normalized geometric least square mean (LSM) for test formulation and IM solution: […]

Data set [3] addresses ABCB1 efflux transporters (Homo sapiens, UniProt P08183). Conditions: literature (Bloise et al. 2016); cited from earlier work.
Data set [4] concerns IL-6, IL-17, TNF-α and IL-1β. The data set can be described thus: Serum and BALF cytokine levels by ELISA in COPD rats. Conditions: aside from the low dose (0.1 mg/ml) 17-HPC group. Format: in vivo, Wistar rats. As to the method:
as §1, with “To examine the in vitro and in vivo efficacy of 17-HPC inhalation in chronic obstructive pulmonary disease (COPD) rats, a rat model of COPD was established by exposing Wistar rats to CS for 1 hour every day for a total of 180 days. Seventy-two” for “Seventy-two”

The structures appear in SMILES notation.

Sequence of ABCB1 efflux transporters (P08183 whole entry): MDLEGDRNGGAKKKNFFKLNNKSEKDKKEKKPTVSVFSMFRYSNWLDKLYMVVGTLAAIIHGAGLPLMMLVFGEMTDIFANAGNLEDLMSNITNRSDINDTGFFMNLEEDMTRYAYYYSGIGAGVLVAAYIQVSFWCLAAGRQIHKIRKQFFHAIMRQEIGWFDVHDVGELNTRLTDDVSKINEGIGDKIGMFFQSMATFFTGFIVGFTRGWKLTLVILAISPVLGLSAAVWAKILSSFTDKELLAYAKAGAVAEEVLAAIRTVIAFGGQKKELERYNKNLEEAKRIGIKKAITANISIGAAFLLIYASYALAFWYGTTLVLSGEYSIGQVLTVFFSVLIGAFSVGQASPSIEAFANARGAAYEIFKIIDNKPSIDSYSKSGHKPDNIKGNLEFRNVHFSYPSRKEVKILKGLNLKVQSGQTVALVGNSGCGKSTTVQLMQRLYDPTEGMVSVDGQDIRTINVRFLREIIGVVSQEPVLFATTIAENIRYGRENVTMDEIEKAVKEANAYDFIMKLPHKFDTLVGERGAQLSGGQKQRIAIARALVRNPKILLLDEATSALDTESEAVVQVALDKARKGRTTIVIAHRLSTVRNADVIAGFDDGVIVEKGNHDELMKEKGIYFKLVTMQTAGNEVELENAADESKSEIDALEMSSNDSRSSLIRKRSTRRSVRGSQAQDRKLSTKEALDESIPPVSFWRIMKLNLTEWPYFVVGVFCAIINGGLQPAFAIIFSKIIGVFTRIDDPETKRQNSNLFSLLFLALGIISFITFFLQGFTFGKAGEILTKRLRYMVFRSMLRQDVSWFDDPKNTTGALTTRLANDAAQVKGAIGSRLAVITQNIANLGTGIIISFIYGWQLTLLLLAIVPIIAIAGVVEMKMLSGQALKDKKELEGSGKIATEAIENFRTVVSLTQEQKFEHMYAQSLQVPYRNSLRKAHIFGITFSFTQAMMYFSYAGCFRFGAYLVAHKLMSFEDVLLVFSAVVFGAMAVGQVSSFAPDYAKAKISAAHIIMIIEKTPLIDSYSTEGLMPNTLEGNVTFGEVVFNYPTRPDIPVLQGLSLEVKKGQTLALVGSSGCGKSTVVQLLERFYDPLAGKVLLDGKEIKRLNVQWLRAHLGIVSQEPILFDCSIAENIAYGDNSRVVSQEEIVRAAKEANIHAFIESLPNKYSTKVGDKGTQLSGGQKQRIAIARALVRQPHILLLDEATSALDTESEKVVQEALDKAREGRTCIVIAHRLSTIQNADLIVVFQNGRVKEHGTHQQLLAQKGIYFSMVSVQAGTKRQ

As for `CCCC1O[C@@H]2C[C@H]3[C@@H]4CCC5=CC(=O)C=C[C@]5(C)[C@H]4[C@@H](O)C[C@]3(C)[C@]2(C(=O)CO)O1` (stereo partly drawn) [BUD, budesonide], the weight increase entry in data set [1] (vs model group) is given as “inhibited weight increase”.

Regarding `CCCCCC(=O)O[C@]1(C(C)=O)CC[C@H]2[C@@H]3CCC4=CC(=O)CC[C@]4(C)[C@H]3CC[C@@]21C` [Solution 17-HPC, 17-[(1-Oxohexyl)oxyl]-pregn-4-ene-3,20-dione], the “clinical signs and body weight change” value in the data set with Sprague-Dawley rats (8 mg/kg/day group, inhalation 7 days, preliminary) was “no clinical signs and body weight change were observed”. Also, the “Hematological and biochemical parameters” value in the data set with Sprague-Dawley rats (8 mg/kg/day vs vehicle, preliminary) is “comparable between the animals treated with vehicle and 17-HPC at 8 mg/kg/day”. Also, the “organ weights, necropsy and histopathology” value in the data set with Sprague-Dawley rats (8 mg/kg/day, preliminary) was “Significant changes in organ weights, necropsy and histopathology were not recorded”. For the same compound, the “NOAEL relative to proposed initial clinical dose (300 μg) based on body surface areas” value in the data set on Sprague-Dawley rats (rat NOAEL 48 mg/m^2/day vs 222 μg/m^2/day) was “approximately 216 times”. Also, the “no observed adverse effect level (NOAEL), body surface” value in the data set on Sprague-Dawley rats (rats, inhalation, 7 consecutive days) is reported as 48 mg/m^2/day. Further, in the data set on Sprague-Dawley rats (satellite group, 72 mg/kg/day for 7 days, sacrificed Day 14), the “pathological alterations after 7-day recovery period” value was “no remarkable pathological alterations in any animals from the satellite group”. The “dose proportionality of Cmax and AUC” value in data set [2] is reported as “generally greater than dose proportional”. Besides, the efflux transporter substrate result in data set [3] is “substrate of ABCB1 efflux transporters”. Also, the “TNF-α, IL-1β, IL-6 and IL-17 levels in the BALF” value in data set [4] was “can downregulate TNF-α, IL-1β, IL-6 and IL-17 levels in the BALF”. Also, the weight increase entry in data set [1] (vs model group) was “no difference in weight increase between the 17-HPC groups and the model group”. In data set [1] (lung tissue, HE staining), the MLI result is “decreased in the other 17-HPC groups and BUD groups in a dose-dependent manner”. In data set [1] (nebulized inhalation), the “inflammatory cell infiltration in lung tissues (HE staining)” value was “attenuated in the 17-HPC groups” and the “percentage of neutrophils in rat BALF” value was “reduced the percentage of neutrophils in rat BALF”. Moreover, in data set [1] (nebulized inhalation, vs model group, after 24 weeks of CS exposure), the FEV0.2/FVC % entry was “improved FEV0.2/FVC % in a dose-dependent manner”.
